# In US11872217B2, “Indanes as PD-L1 inhibitors” (CHEMOCENTRYX, INC., priority 2019, dated 2024):
# Target: human PD-L1 / Human PD-1 (Homo sapiens (Human), UniProt Q9NZQ7)
# Assay: Enzyme-Linked Immunosorbent Assay (ELISA), PD-1/PD-L1 binding
# Conditions: plates coated with human PD-L1; biotinylated human PD-1; absorbance at 450 nm
# Protocol: 96 Well plates were coated with 1 μg/mL of human PD-L1 (obtained from R&D) in PBS overnight at 4° C. The wells were then blocked with 2% BSA in PBS (W/V) with 0.05% TWEEN-20 for 1 hour at 37° C. The plates were washed 3 times with PBS/0.05% TWEEN-20 and the compounds were serial diluted (1:5) in dilution medium and added to the ELISA plates. Human PD-1 and biotin 0.3 μg/mL (ACRO Biosystems) were added and incubated for 1 hour at 37° C. then washed 3 times with PBS/0.05% TWEEN-20. A second block was performed with 2% BSA in PBS (W/V)/0.05% TWEEN-20 for 10 min at 37° C. and the plates were washed 3 times with PBS/0.05% TWEEN-20. Streptavidin-HRP was added for 1 hour at 37° C. then the plates were washed 3 times with PBS/0.05% TWEEN-20. TMB substrate was added and reacted for 20 min at 37° C. A stop solution (2 N aqueous H2SO4) was added. The absorbance was read at 450 nm using a micro-plate spectrophotometer. The results are shown in Table 1: IC50 values are provided as follows: from 100 up to 10,000 nM (+); less than 100 nM (++).
# Chain of human PD-L1 / Human PD-1 (Q9NZQ7 19-239): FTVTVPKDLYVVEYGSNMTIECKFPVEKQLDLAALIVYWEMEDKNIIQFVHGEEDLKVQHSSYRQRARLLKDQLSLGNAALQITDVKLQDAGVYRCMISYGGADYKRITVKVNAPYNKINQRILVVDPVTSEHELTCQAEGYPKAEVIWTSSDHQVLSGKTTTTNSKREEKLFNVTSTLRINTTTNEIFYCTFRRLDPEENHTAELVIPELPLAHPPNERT
row,SMILES,IC50
1,CCOc1cc(O[C@H]2CCc3c(-c4cccc5c4CC[C@@H]5Oc4cc(OCC)c(CN(C)CCC(=O)OC)cc4Cl)cccc32)c(Cl)cc1CN(C)CCC(=O)OC [Compound 1.043],100 to 10000 nM
2,CCOc1cc(O[C@H]2CCc3c(-c4cccc5c4CC[C@@H]5Oc4cc(OCc5cc(C#N)cc(C#N)c5)c(CN[C@@](C)(CO)C(=O)O)cc4Cl)cccc32)c(Cl)cc1CN[C@@](C)(CO)C(=O)O [Compound 1.026],< 100 nM
3,CCOc1cc(NC2CCc3c(-c4cccc(COc5cc(OCC)c(CN(C)CCCC(=O)OC)cc5Cl)c4C)cccc32)c(Cl)cc1CN(C)CCCC(=O)OC (stereo not drawn) [Compound 1.016],100 to 10000 nM
4,N#Cc1cncc(COc2cc(O[C@H]3CCc4c(-c5cccc6c5CC[C@@H]6Oc5cc(OCc6cncc(C#N)c6)c(CNCC(=O)O)cc5Cl)cccc43)c(Cl)cc2CNCC(=O)O)c1 [Compound 1.017],< 100 nM
5,CCOc1cc(O[C@H]2CCc3c(-c4cccc5c4CC[C@@H]5Oc4cc(OCC)c(CN[C@@](C)(CO)C(=O)O)cc4Cl)cccc32)c(Cl)cc1CN[C@@](C)(CO)C(=O)O [Compound 1.044],< 100 nM
6,CCOc1cc(O[C@H]2CCc3c(-c4cccc5c4CC[C@@H]5Oc4cc(OCC)c(CN(C)CCC(=O)O)cc4Cl)cccc32)c(Cl)cc1CN(C)CCC(=O)O [Compound 1.049],< 100 nM
7,CCOc1cc(O[C@H]2CCc3c(-c4cccc5c4CC[C@@H]5Oc4cc(OCC)c(CN[C@@](C)(CO)C(=O)OC)cc4Cl)cccc32)c(Cl)cc1CN[C@@](C)(CO)C(=O)OC [Compound 1.022],100 to 10000 nM
8,Cc1c(COc2ccc(CN[C@@](C)(CO)C(=O)O)cc2F)cccc1-c1cccc2c1CCC2Oc1ccc(CN[C@@](C)(CO)C(=O)O)cc1F (stereo partly drawn) [Compound 1.010],100 to 10000 nM
9,CCOc1cc(O[C@H]2CCc3c(-c4cccc5c4CC[C@@H]5Oc4cc(OCC)c(CN[C@H](C(=O)O)[C@@H](C)O)cc4Cl)cccc32)c(Cl)cc1CN[C@H](C(=O)O)[C@@H](C)O [Compound 1.042],< 100 nM
10,CCOc1cc(O[C@H]2CCc3c(-c4cccc5c4CC[C@@H]5Oc4cc(OCC)c(CN5CC6(CC(O)C6)C5)cc4Cl)cccc32)c(Cl)cc1CN1CC2(CC(O)C2)C1 [Compound 1.050],< 100 nM
11,CCOc1cc(NC2CCc3c(-c4cccc(COc5cc(OCC)c(CN(C)CCCC(=O)O)cc5Cl)c4C)cccc32)c(Cl)cc1CN(C)CCCC(=O)O (stereo not drawn) [Compound 1.015],< 100 nM
12,CCOc1cc(O[C@H]2CCc3c(-c4cccc5c4CC[C@@H]5Oc4cc(OCC)c(CN5CCC6(C5)NC(=O)NC6=O)cc4Cl)cccc32)c(Cl)cc1CN[C@@](C)(CO)C(=O)O (stereo partly drawn) [Compound 1.028],< 100 nM
13,CCOc1cc(O[C@H]2CCc3c(-c4cccc5c4CC[C@@H]5Oc4cc(OCC)c(CN(C)CCCC(=O)OC)cc4Cl)cccc32)c(Cl)cc1CN(C)CCCC(=O)OC [Compound 1.021],100 to 10000 nM
14,CN(Cc1cc(Cl)c(O[C@H]2CCc3c(-c4cccc5c4CC[C@@H]5Oc4cc(OCc5cncc(C#N)c5)c(CN(C)[C@@](C)(CO)C(=O)O)cc4Cl)cccc32)cc1OCc1cncc(C#N)c1)[C@@](C)(CO)C(=O)O [Compound 1.033],< 100 nM
15,N#Cc1cncc(COc2cc(O[C@H]3CCc4c(-c5cccc6c5CC[C@@H]6Oc5cc(OCc6cncc(C#N)c6)c(CN[C@@H](CCO)C(=O)O)cc5Cl)cccc43)c(Cl)cc2CN[C@@H](CCO)C(=O)O)c1 [Compound 1.046],< 100 nM
16,N#Cc1cncc(COc2cc(O[C@H]3CCc4c(-c5cccc6c5CC[C@@H]6Oc5cc(OCc6cncc(C#N)c6)c(CN[C@@H](CO)C(=O)O)cc5Cl)cccc43)c(Cl)cc2CN[C@@H](CO)C(=O)O)c1 [Compound 1.038],< 100 nM
17,COC(=O)CCCN(C)Cc1cc(Cl)c(O[C@H]2CCc3c(-c4cccc5c4CC[C@@H]5Oc4cc(OCc5cncc(C#N)c5)c(CN(C)CCCC(=O)OC)cc4Cl)cccc32)cc1OCc1cncc(C#N)c1 [Compound 1.027],< 100 nM

row,SMILES,IC50
1,CN(CCCC(=O)O)Cc1cc(Cl)c(O[C@H]2CCc3c(-c4cccc5c4CC[C@@H]5Oc4cc(OCc5cncc(C#N)c5)c(CN(C)CCCC(=O)O)cc4Cl)cccc32)cc1OCc1cncc(C#N)c1 [Compound 1.035],< 100 nM
2,CCOc1cc(O[C@H]2CCc3c(-c4cccc5c4CC[C@@H]5Oc4cc(OCC)c(CN5CCC5(C)C)cc4Cl)cccc32)c(Cl)cc1CN1CCC1(C)C [Compound 1.048],< 100 nM
3,CCOc1cc(O[C@H]2CCc3c(-c4cccc5c4CC[C@@H]5Oc4cc(OCC)c(CN[C@@H](CCO)C(=O)O)cc4Cl)cccc32)c(Cl)cc1CN[C@@H](CCO)C(=O)O [Compound 1.047],< 100 nM
4,Cc1cc(CN[C@@](C)(CO)C(=O)O)ccc1OCc1cccc(-c2cccc3c2CCC3Oc2ccc(CN[C@@](C)(CO)C(=O)O)cc2C)c1C (stereo partly drawn) [Compound 1.008],< 100 nM
5,CCOc1cc(O[C@H]2CCc3c(-c4cccc5c4CC[C@@H]5Oc4cc(OCC)c(CN(C)[C@@H](CO)C(=O)O)cc4Cl)cccc32)c(Cl)cc1CN(C)[C@@H](CO)C(=O)O [Compound 1.002],< 100 nM
6,CCOc1cc(O[C@@H]2c3cccc(-c4cccc(COc5cc(COC)c(CN[C@@](C)(CO)C(=O)O)cc5Cl)c4C)c3C[C@@H]2F)c(Cl)cc1CN[C@@](C)(CO)C(=O)O (mixture of isomers) [Compound 1.020],< 100 nM
7,CCOc1cc(O[C@H]2CCc3c(-c4cccc5c4CC[C@@H]5Oc4cc(OCC)c(CN)cc4Cl)cccc32)c(Cl)cc1CN [Compound 1.003],100 to 10000 nM
8,CCOc1cc(OCc2cccc(-c3cccc4c3CCC4Oc3ccc(CN[C@@](C)(CO)C(=O)O)c(OCC)c3)c2C)ccc1CN[C@@](C)(CO)C(=O)O (stereo partly drawn) [Compound 1.023],100 to 10000 nM
9,CCOc1cc(O[C@H]2CCc3c(-c4cccc5c4CC[C@H]5Oc4cc(OCC)c(CN[C@@](C)(CO)C(=O)O)cc4Cl)cccc32)c(Cl)cc1CN[C@@](C)(CO)C(=O)O [Compound 1.031],< 100 nM
10,CCOc1cc(O[C@H]2CCc3c(-c4cccc5c4CC[C@@H]5Oc4cc(OCC)c(CN[C@H](CO)C(=O)O)cc4Cl)cccc32)c(Cl)cc1CN[C@H](CO)C(=O)O [Compound 1.018],< 100 nM
11,CCOc1cc(O[C@H]2CCc3c(-c4cccc5c4CC[C@@H]5Oc4cc(OCC)c(CN[C@H](C(=O)NS(C)(=O)=O)[C@@H](C)O)cc4Cl)cccc32)c(Cl)cc1CN[C@H](C(=O)NS(C)(=O)=O)[C@@H](C)O [Compound 1.030],< 100 nM
12,CCOc1cc(O[C@H]2CCc3c(-c4cccc5c4CC[C@@H]5Oc4cc(OCC)c(CN[C@@H](CO)C(=O)O)cc4Cl)cccc32)c(Cl)cc1CN[C@@H](CO)C(=O)O [Compound 1.045],< 100 nM
13,CCOc1cc(O[C@H]2CCc3c(-c4cccc5c4CC[C@@H]5Oc4cc(OCC)c(CN[C@@H](CO)C(N)=O)cc4Cl)cccc32)c(Cl)cc1CN[C@@H](CO)C(N)=O [Compound 1.014],< 100 nM
14,CCOc1cc(O[C@H]2CCc3c(-c4cccc5c4CC[C@@H]5Oc4cc(OCC)c(CN[C@H]5CCC(=O)NC5)cc4Cl)cccc32)c(Cl)cc1CN[C@H]1CCC(=O)NC1 [Compound 1.009],< 100 nM
15,CCOc1cc(OCc2cccc(-c3cccc4c3CC[C@@H]4Oc3cc(OCC)c(CNCCS(=O)(=O)O)cc3Cl)c2C)c(Cl)cc1CNCCS(=O)(=O)O [Compound 1.004],< 100 nM
16,CCOc1cc(O[C@H]2CCc3c(-c4cccc5c4CC[C@@H]5Oc4cc(OCC)c(CN(C)[C@@](C)(CO)C(=O)O)cc4Cl)cccc32)c(Cl)cc1CN(C)C[C@@H]1CCC(=O)N1 [Compound 1.006],< 100 nM
